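Five concentrations, 48 hours, 96-well plates. Here, GI50 denotes the concentration required for 50% inhibition of growth. The concentration for full growth arrest is given as TGI.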
Assays:
Experiment in all cases: NCI anticancer screen, dose series, 48 h
SK-MEL-5 melanoma = test system: SK-MEL-5 melanoma
MOLT-4 leukemia = test system: MOLT-4 leukemia
786-0 renal = test system: 786-0 renal
CCRF-CEM leukemia = test system: CCRF-CEM leukemia
SNB-75 CNS = test system: SNB-75 CNS
TK-10 renal = test system: TK-10 renal
SF-268 CNS = test system: SF-268 CNS
OVCAR-3 ovarian = test system: OVCAR-3 ovarian
BT-549 breast = test system: BT-549 breast
HT29 colon = test system: HT29 colon
OVCAR-4 ovarian = test system: OVCAR-4 ovarian
HCC-2998 colon = test system: HCC-2998 colon
K-562 leukemia = test system: K-562 leukemia
LOX IMVI melanoma = test system: LOX IMVI melanoma
SK-MEL-2 melanoma = test system: SK-MEL-2 melanoma
A498 renal = test system: A498 renal
MALME-3M melanoma = test system: MALME-3M melanoma
T-47D breast = test system: T-47D breast
UACC-62 melanoma = test system: UACC-62 melanoma
OVCAR-5 ovarian = test system: OVCAR-5 ovarian
M14 melanoma = test system: M14 melanoma
NCI/ADR-RES ovarian = test system: NCI/ADR-RES ovarian
RPMI-8226 leukemia = test system: RPMI-8226 leukemia
COLO 205 colon = test system: COLO 205 colon
MDA-MB-435 = test system: MDA-MB-435
HS 578T breast = test system: HS 578T breast
RXF 393 renal = test system: RXF 393 renal
SF-539 CNS = test system: SF-539 CNS
NCI-H522 lung = test system: NCI-H522 lung
NCI-H460 lung = test system: NCI-H460 lung
SR leukemia = test system: SR leukemia
OVCAR-8 ovarian = test system: OVCAR-8 ovarian
U251 CNS = test system: U251 CNS
HL-60(TB) leukemia = test system: HL-60(TB) leukemia
SK-MEL-28 melanoma = test system: SK-MEL-28 melanoma
SW-620 colon = test system: SW-620 colon
UACC-257 melanoma = test system: UACC-257 melanoma
HCT-116 colon = test system: HCT-116 colon
NCI-H226 lung = test system: NCI-H226 lung
MDA-MB-231 breast = test system: MDA-MB-231 breast
DU-145 prostate = test system: DU-145 prostate
UO-31 renal = test system: UO-31 renal
EKVX NSCLC = test system: EKVX NSCLC
HOP-62 NSCLC = test system: HOP-62 NSCLC
IGROV1 ovarian = test system: IGROV1 ovarian
SN12C renal = test system: SN12C renal
A549 NSCLC = test system: A549 NSCLC
KM12 colon = test system: KM12 colon
ACHN renal = test system: ACHN renal
CAKI-1 renal = test system: CAKI-1 renal
PC-3 prostate = test system: PC-3 prostate

Clc1ccc2c(NCCCN3CCN(c4nc(N5CCOCC5)nc5ccccc45)CC3)ccnc2c1
GI50 (SK-MEL-5 melanoma): 1.73 µM
TGI (SK-MEL-5 melanoma): 3.12 µM
GI50 (MOLT-4 leukemia): 1.36 µM
TGI (MOLT-4 leukemia): 3.9 µM
GI50 (786-0 renal): 1.59 µM
TGI (786-0 renal): 3.03 µM
GI50 (CCRF-CEM leukemia): 1.8 µM
TGI (CCRF-CEM leukemia): 5.73 µM
GI50 (SNB-75 CNS): 1.85 µM
TGI (SNB-75 CNS): 3.3 µM
GI50 (TK-10 renal): 2.04 µM
TGI (TK-10 renal): 4.56 µM
GI50 (SF-268 CNS): 2.21 µM
TGI (SF-268 CNS): 5.51 µM
GI50 (OVCAR-3 ovarian): 2.15 µM
TGI (OVCAR-3 ovarian): 4.77 µM
GI50 (BT-549 breast): 1.64 µM
TGI (BT-549 breast): 3.08 µM
GI50 (HT29 colon): 1.62 µM
TGI (HT29 colon): 3.71 µM
GI50 (OVCAR-4 ovarian): 1.9 µM
TGI (OVCAR-4 ovarian): 4.64 µM
GI50 (HCC-2998 colon): 1.77 µM
TGI (HCC-2998 colon): 3.28 µM
GI50 (K-562 leukemia): 0.402 µM
TGI (K-562 leukemia): 3.75 µM
GI50 (LOX IMVI melanoma): 1.98 µM
TGI (LOX IMVI melanoma): 3.97 µM
GI50 (SK-MEL-2 melanoma): 1.87 µM
TGI (SK-MEL-2 melanoma): 3.49 µM
GI50 (A498 renal): 1.57 µM
TGI (A498 renal): 3.11 µM
GI50 (MALME-3M melanoma): 1.9 µM
TGI (MALME-3M melanoma): 3.49 µM
GI50 (T-47D breast): 2.32 µM
TGI (T-47D breast): 5.09 µM
GI50 (UACC-62 melanoma): 1.9 µM
TGI (UACC-62 melanoma): 3.36 µM
GI50 (OVCAR-5 ovarian): 2.5 µM
TGI (OVCAR-5 ovarian): 6.34 µM
GI50 (M14 melanoma): 1.39 µM
TGI (M14 melanoma): 2.85 µM
GI50 (NCI/ADR-RES ovarian): 2.23 µM
TGI (NCI/ADR-RES ovarian): 4.73 µM
GI50 (RPMI-8226 leukemia): 1.15 µM
TGI (RPMI-8226 leukemia): 3.46 µM
GI50 (COLO 205 colon): 1.66 µM
TGI (COLO 205 colon): 3.32 µM
GI50 (MDA-MB-435): 1.81 µM
TGI (MDA-MB-435): 3.36 µM
GI50 (HS 578T breast): 1.5 µM
TGI (HS 578T breast): 3.72 µM
GI50 (RXF 393 renal): 1.65 µM
TGI (RXF 393 renal): 3.1 µM
GI50 (SF-539 CNS): 1.68 µM
TGI (SF-539 CNS): 3.14 µM
GI50 (NCI-H522 lung): 1.97 µM
TGI (NCI-H522 lung): 3.73 µM
GI50 (NCI-H460 lung): 1.91 µM
TGI (NCI-H460 lung): 3.84 µM
GI50 (SR leukemia): 1.35 µM
TGI (SR leukemia): 4.57 µM
GI50 (OVCAR-8 ovarian): 1.98 µM
TGI (OVCAR-8 ovarian): 4.47 µM
GI50 (U251 CNS): 2.15 µM
TGI (U251 CNS): 5.15 µM
GI50 (HL-60(TB) leukemia): 1.35 µM
TGI (HL-60(TB) leukemia): 3.95 µM
GI50 (SK-MEL-28 melanoma): 1.88 µM
TGI (SK-MEL-28 melanoma): 3.37 µM
GI50 (SW-620 colon): 1.62 µM
TGI (SW-620 colon): 3.5 µM
GI50 (UACC-257 melanoma): 1.77 µM
TGI (UACC-257 melanoma): 3.42 µM
GI50 (HCT-116 colon): 1.25 µM
TGI (HCT-116 colon): 2.59 µM

NC(N)=N/N=C/c1c(-c2ccc(Cl)c([N+](=O)[O-])c2)nc2sc3ccccc3n12
GI50 (NCI-H226 lung): 1.79 µM
TGI (NCI-H226 lung): 11.1 µM
GI50 (SK-MEL-5 melanoma): 0.952 µM
TGI (SK-MEL-5 melanoma): 1.95 µM
GI50 (MDA-MB-231 breast): 0.697 µM
TGI (MDA-MB-231 breast): 1.47 µM
GI50 (786-0 renal): 0.951 µM
TGI (786-0 renal): 1.75 µM
GI50 (DU-145 prostate): 2.29 µM
TGI (DU-145 prostate): 14.8 µM
GI50 (UO-31 renal): 23.6 µM
TGI (UO-31 renal): > 50 µM
GI50 (TK-10 renal): 0.95 µM
TGI (TK-10 renal): 1.91 µM
GI50 (BT-549 breast): 0.895 µM
TGI (BT-549 breast): 2.12 µM
GI50 (EKVX NSCLC): 2.03 µM
TGI (EKVX NSCLC): 7.16 µM
GI50 (HT29 colon): 1.93 µM
TGI (HT29 colon): > 50 µM
GI50 (HOP-62 NSCLC): 11.6 µM
TGI (HOP-62 NSCLC): 28.1 µM
GI50 (IGROV1 ovarian): 11.8 µM
TGI (IGROV1 ovarian): > 50 µM
GI50 (SN12C renal): 0.529 µM
TGI (SN12C renal): 1.38 µM
GI50 (HCC-2998 colon): 0.296 µM
TGI (HCC-2998 colon): 0.95 µM
GI50 (A549 NSCLC): 1.61 µM
TGI (A549 NSCLC): > 12.2 µM
GI50 (K-562 leukemia): 0.209 µM
TGI (K-562 leukemia): > 50 µM
GI50 (LOX IMVI melanoma): 0.0923 µM
TGI (LOX IMVI melanoma): 0.17 µM
GI50 (SK-MEL-2 melanoma): 26.8 µM
TGI (SK-MEL-2 melanoma): > 50 µM
GI50 (A498 renal): 3.9 µM
TGI (A498 renal): 11.2 µM
GI50 (UACC-62 melanoma): 0.849 µM
TGI (UACC-62 melanoma): 1.58 µM
GI50 (OVCAR-5 ovarian): 0.773 µM
TGI (OVCAR-5 ovarian): 1.44 µM
GI50 (M14 melanoma): 0.136 µM
TGI (M14 melanoma): 12 µM
GI50 (NCI/ADR-RES ovarian): 0.583 µM
TGI (NCI/ADR-RES ovarian): 1.76 µM
GI50 (COLO 205 colon): 0.98 µM
GI50 (MDA-MB-435): 1.1 µM
TGI (MDA-MB-435): 2.4 µM
GI50 (HS 578T breast): 1.38 µM
TGI (HS 578T breast): 2.91 µM
GI50 (RXF 393 renal): 10.9 µM
TGI (RXF 393 renal): 26.9 µM
GI50 (KM12 colon): 0.842 µM
TGI (KM12 colon): 2.54 µM
GI50 (NCI-H522 lung): 3.66 µM
TGI (NCI-H522 lung): > 50 µM
GI50 (ACHN renal): 0.862 µM
TGI (ACHN renal): 1.56 µM
GI50 (OVCAR-8 ovarian): 1.19 µM
TGI (OVCAR-8 ovarian): 2.76 µM
GI50 (CAKI-1 renal): 1.66 µM
TGI (CAKI-1 renal): 8.49 µM
GI50 (U251 CNS): 0.0951 µM
TGI (U251 CNS): 0.177 µM
GI50 (PC-3 prostate): 0.738 µM
TGI (PC-3 prostate): 1.4 µM
GI50 (UACC-257 melanoma): 8.38 µM
TGI (UACC-257 melanoma): 18 µM
GI50 (HCT-116 colon): 0.02 µM
TGI (HCT-116 colon): 8.97 µM

COc1cccc(CC2C(=O)NC(=O)NC2=O)c1
GI50 (SR leukemia): 39.5 µg/mL

— PubChem BioAssay (NCI)
